# Read-outs that look alike come from different tables or passages of the source.
# Columns and labels:
# [1] = test system: HCT116 (colon) cancer cell line; assay: 2D-monolayer antiproliferation (MTT) against HCT116; type: cell-based, human; conditions: for IC50: Homo sapiens, HCT-116; for SI (selectivity index) HCT116: IC50 of RPE1 normal cell/IC50 of HCT116
# [2] = test system: PaCa2 (pancreatic) cancer cell line; assay: 2D-monolayer antiproliferation (MTT) against PaCa2; type: cell-based, human; conditions: for 1/(observed property): 1/observed IC50 (μM), PaCa2; for IC50: Homo sapiens, PaCa-2, MTT, 72 h incubation, PaCa2 pancreatic, read-out: IC50, μM ± SEM PaCa2; for SI (selectivity index) PaCa2: IC50 of RPE1 normal cell/IC50 of PaCa2
# [3] = test system: MCF7 (breast) cancer cell line; assay: 2D-monolayer antiproliferation (MTT) against MCF7; type: cell-based, human; conditions: for IC50: Homo sapiens, MTT, 72 h incubation, MCF7 breast, read-out: IC50, μM ± SEM MCF7; for SI (selectivity index) MCF7: IC50 of RPE1 normal cell/IC50 of MCF7
# [4] = test system: A549 (lung) cancer cell line; assay: 2D-monolayer antiproliferation (MTT) against A549; type: cell-based, human; conditions: for IC50: Homo sapiens, MTT, 72 h incubation, A549 lung, read-out: IC50, μM ± SEM A549; for SI (selectivity index) A549: IC50 of RPE1 normal cell/IC50 of A549
# [5] = test system: RPE1 (normal human immortalized retinal pigment epithelial cell line); assay: cells; type: cell-based; conditions: for IC50: Homo sapiens, RPE-1, MTT, normal RPE1 cell, read-out: IC50, μM ± SEM RPE1
# VEGFR-2 [6] = molecular target: T1, VEGFR-2 (Homo sapiens, UniProt P35968); assay: cell-based; type: cell-based; conditions: for inhibition at 10 µM: HCT-116, HCT116; for VEGFR-2 pg/mL ± SEM HCT116: at 10 μM, control 317.80 ± 3.5
# T1 construct: endogenous in cells; host or cells: HCT116, PaCa2, MCF7 (human cancer cell lines, ATCC origin)
# VEGFR-2 [7] = molecular target: T1, VEGFR-2; assay: cell-based; type: cell-based; conditions: for inhibition at 10 µM: PaCa-2, PaCa2; for VEGFR-2 pg/mL ± SEM PaCa2: at 10 μM, control 326.80 ± 1.9
# VEGFR-2 [8] = molecular target: T1, VEGFR-2; assay: cell-based; type: cell-based; conditions: for inhibition at 10 µM: MCF7; for VEGFR-2 pg/mL ± SEM MCF7: at 10 μM, control 258.70 ± 2.3
# COX-1 = molecular target: T2, COX-1 (Ovis aries, UniProt P05979); assay: biochemical; conditions: 3 replicates, read-out: % Inhibition of COX-1 ± SEM
# T2 construct: purchased BioVision incorporated USA K548–100
# T2 sequence (P05979 25-600): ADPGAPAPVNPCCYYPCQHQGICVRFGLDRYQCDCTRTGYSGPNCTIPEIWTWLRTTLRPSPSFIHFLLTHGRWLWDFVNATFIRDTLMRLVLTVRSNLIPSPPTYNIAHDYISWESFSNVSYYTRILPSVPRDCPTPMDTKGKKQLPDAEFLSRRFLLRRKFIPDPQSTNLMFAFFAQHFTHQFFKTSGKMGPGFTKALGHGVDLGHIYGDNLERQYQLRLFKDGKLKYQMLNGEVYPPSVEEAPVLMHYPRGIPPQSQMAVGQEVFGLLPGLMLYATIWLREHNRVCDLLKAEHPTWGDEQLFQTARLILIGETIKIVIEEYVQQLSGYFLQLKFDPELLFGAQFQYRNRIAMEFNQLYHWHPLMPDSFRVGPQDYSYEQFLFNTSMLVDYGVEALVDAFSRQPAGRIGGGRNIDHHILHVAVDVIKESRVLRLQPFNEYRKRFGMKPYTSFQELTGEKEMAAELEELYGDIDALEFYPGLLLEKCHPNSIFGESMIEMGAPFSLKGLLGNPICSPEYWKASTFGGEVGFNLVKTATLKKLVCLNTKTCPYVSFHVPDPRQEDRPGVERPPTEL
# COX-2 = molecular target: T3, COX-2 (Homo sapiens, UniProt P35354); assay: biochemical; conditions: for inhibition at 10 µM: 3 replicates, read-out: % Inhibition of COX-2 ± SEM; for SI (selectivity index, COX-2/COX-1): at 10 μM
# T3 construct: purchased BioVision incorporated USA K548–100
# T3 sequence (P35354 18-604): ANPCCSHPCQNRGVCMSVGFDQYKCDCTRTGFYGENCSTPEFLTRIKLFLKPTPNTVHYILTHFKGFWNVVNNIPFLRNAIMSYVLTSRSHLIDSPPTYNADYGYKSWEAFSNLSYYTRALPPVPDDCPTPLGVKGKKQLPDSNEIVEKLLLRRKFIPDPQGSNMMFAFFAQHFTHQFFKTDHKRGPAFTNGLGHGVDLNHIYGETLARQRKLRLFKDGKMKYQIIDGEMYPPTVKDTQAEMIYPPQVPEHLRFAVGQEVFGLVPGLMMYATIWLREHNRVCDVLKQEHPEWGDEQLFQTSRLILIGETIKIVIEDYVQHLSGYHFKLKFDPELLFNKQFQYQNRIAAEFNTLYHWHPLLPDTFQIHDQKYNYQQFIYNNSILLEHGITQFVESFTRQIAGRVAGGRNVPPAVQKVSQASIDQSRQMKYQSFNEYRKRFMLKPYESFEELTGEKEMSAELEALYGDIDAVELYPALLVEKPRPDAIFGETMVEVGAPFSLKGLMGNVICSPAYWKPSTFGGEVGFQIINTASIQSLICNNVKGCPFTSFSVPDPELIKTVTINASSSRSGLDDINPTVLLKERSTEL
# TNF-α [9] = assay: TNF-α inhibitory properties (ELISA), HCT116 cell lysate; type: cell-based, human; conditions: at 10 μM; for TNF-α pg/mL (± SEM) HCT116: control 95.74 ± 0.5
# TNF-α [10] = assay: TNF-α inhibitory properties (ELISA), PaCa2 cell lysate; type: cell-based, human; conditions: for TNF-α % inhibition PaCa2 / TNF-α pg/mL (± SEM) PaCa2: at 10 μM; for TNF-α pg/mL (± SEM) PaCa2: control 111.8 ± 2.0
# TNF-α [11] = assay: TNF-α inhibitory properties (ELISA), MCF7 cell lysate; type: cell-based, human; conditions: at 10 μM; for TNF-α pg/mL (± SEM) MCF7: control 83.26 ± 1.1
# CAM blood vessel network = assay: Chick chorioallantoic membrane (CAM) anti-angiogenic assay; type: in vivo, chicken; conditions: 20 μL of 660 μM, 3 days; for Diameter of blood vessel (μm ± SEM): CAM test, control 459.7 ± 13.8
# Experimental: CAM assay is an established xenograft technique for investigating the angiogenic effect due to the high resemblance of the human vascularized epithelium basement membrane with that of the chorioallantoic layer containing mainly type IV collagen[84]–[86].
# Fig. 10 Images of light microscopy for anti-angiogenic evaluation of the tested compounds using CAM assay. […] The glass slide was placed on the surface of the CAM blood vessel network and left in an incubator at 37 °C for 3 days. The CAM blood vessel network was carefully cut and imaged under a light microscope (40 × magnification).
# Fertilized white chicken eggs were incubated in a 37 °C incubator with constant humidity. On day 8, a small squared window was opened allowing the detachment of the growing CAM and shell. The opening was covered with an elastic bandage. […] The CAM was then sealed with a bandage and placed back in the incubator. CAMs were examined daily until day 12 (3 days), the vascularized membranes were then cut around the glass slide and fixed in 5% formalin. Images were taken with an Evos microscope at 40x and 100x magnification^9. Main blood vessel in the microscopic images of controls and samples were quantified by imageJ and analyzed for significant differences (n = 4).
# [12] = MTT, 72 h incubation, HCT116 colon, read-out: IC50, μM ± SEM HCT116
# [13] = log of observed IC50 (μM), HCT116, read-out: Log(observed property) (converted)
# T1 sequence (P35968 20-1356): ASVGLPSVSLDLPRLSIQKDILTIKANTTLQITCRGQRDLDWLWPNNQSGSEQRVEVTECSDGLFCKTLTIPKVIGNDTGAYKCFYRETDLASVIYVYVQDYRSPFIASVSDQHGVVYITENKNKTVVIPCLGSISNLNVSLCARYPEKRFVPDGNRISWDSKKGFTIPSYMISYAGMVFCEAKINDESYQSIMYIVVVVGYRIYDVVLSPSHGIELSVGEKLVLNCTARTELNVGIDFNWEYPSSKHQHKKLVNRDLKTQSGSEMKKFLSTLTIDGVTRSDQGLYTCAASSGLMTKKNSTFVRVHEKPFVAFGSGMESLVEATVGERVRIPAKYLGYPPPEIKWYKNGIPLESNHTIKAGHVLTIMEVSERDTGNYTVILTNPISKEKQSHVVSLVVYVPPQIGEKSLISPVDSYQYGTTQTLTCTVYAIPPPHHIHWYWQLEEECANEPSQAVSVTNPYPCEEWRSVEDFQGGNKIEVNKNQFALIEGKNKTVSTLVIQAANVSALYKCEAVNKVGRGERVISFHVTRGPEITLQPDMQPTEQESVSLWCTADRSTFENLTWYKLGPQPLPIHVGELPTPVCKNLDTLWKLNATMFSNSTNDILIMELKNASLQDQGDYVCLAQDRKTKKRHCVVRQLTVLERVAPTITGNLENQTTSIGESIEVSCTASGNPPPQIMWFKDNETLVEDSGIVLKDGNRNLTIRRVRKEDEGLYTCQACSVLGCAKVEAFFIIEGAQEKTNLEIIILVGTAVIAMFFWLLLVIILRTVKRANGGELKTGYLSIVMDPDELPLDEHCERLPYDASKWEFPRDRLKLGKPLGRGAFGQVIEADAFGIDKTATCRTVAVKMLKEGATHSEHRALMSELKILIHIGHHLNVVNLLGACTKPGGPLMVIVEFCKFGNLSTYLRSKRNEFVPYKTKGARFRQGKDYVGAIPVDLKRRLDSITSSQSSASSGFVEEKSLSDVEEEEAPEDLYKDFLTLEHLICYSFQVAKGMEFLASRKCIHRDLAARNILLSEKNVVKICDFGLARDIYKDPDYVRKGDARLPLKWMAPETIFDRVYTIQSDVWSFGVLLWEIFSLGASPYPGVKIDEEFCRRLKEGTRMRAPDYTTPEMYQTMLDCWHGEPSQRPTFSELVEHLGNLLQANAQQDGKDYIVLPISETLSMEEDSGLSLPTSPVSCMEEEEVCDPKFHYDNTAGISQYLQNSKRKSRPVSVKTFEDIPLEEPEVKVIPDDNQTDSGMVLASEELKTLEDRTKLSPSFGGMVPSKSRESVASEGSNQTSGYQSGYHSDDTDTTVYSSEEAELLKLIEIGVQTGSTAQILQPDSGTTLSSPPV
SMILES,"IC50 [1, 12] [µM]","IC50 [1, 13] [µM]",SI (selectivity index) HCT116 [1],1/(observed property) [2],IC50 [2] [µM],SI (selectivity index) PaCa2 [2],IC50 [3] [µM],SI (selectivity index) MCF7 [3],IC50 [4] [µM],IC50 [5] [µM],inhibition at 10 µM (VEGFR-2 [6]) [%],VEGFR-2 pg/mL ± SEM HCT116 (VEGFR-2 [6]) [pg/mL],inhibition at 10 µM (VEGFR-2 [7]) [%],VEGFR-2 pg/mL ± SEM PaCa2 (VEGFR-2 [7]) [pg/mL],inhibition at 10 µM (VEGFR-2 [8]) [%],VEGFR-2 pg/mL ± SEM MCF7 (VEGFR-2 [8]) [pg/mL],inhibition at 10 µM (COX-1) [%],inhibition at 10 µM (COX-2) [%],TNF-α pg/mL (± SEM) HCT116 (TNF-α [9]) [pg/mL],TNF-α pg/mL (± SEM) PaCa2 (TNF-α [10]) [pg/mL],other results
"CCOP(=O)(OCC)N1C/C(=C\c2ccc(C)cc2)C(=O)C2(C1)C(c1ccc(C)cc1)CN(C)C21C(=O)Nc2ccccc21 (stereo not drawn) [Compound 17m, Diethyl (E)-[1′-methyl-5′′-(4-methylbenzylidene)-2,4′′-dioxo-4′-(p-tolyl)dispiro[indoline-3,2′-pyrrolidine-3′,3′′-piperidin]-1′′-yl]phosphonate]",3.44 ± 0.083,3.44,2.8,0.1784,5.61 ± 0.063,1.7,4.21 ± 0.085,2.3,8.18 ± 0.435,9.57 ± 0.537,86,44.50 ± 0.5,92.2,25.36 ± 1.0,83.5,42.80 ± 0.4,58.3 ± 3,60.9 ± 1.1,21.65 ± 0.9,32.83 ± 1.3,"SI (selectivity index) A549 [4]: 1.2; SI (selectivity index, COX-2/COX-1) (COX-2): 0.93; TNF-α % inhibition HCT116 (TNF-α [9]): 77.4%; TNF-α % inhibition PaCa2 (TNF-α [10]): 70.6%; TNF-α % inhibition MCF7 (TNF-α [11]): 68.5%; TNF-α pg/mL (± SEM) MCF7 (TNF-α [11]): 26.24 ± 2.2 pg/mL; Diameter of blood vessel (μm ± SEM) (CAM blood vessel network): 85.7 ± 2.6 μm"
"CCOP(=O)(OCC)N1C/C(=C\c2ccccc2)C(=O)C2(C1)C(c1ccccc1)CN(C)C21C(=O)Nc2ccccc21 (stereo not drawn) [Compound 17a, Diethyl (E)-(5′′-benzylidene-1′-methyl-2,4′′-dioxo-4′-phenyldispiro[indoline-3,2′-pyrrolidine-3′,3′′-piperidin]-1′′-yl)phosphonate]",7.97 ± 0.338,7.97,2.1,0.0774,12.9 ± 0.559,1.3,5.86 ± 0.259,2.9,14.5 ± 0.259,16.8 ± 0.516,88,38.20 ± 1.6,94.1,19.26 ± 1.0,80.1,51.50 ± 0.8,49.8 ± 1.8,64.9 ± 2.8,24.86 ± 0.8,24.8 ± 1.5,SI (selectivity index) A549 [4]: 1.2; TNF-α % inhibition HCT116 (TNF-α [9]): 74.0%; TNF-α % inhibition MCF7 (TNF-α [11]): 78.1%; TNF-α pg/mL (± SEM) MCF7 (TNF-α [11]): 18.25 ± 1.1 pg/mL; Diameter of blood vessel (μm ± SEM) (CAM blood vessel network): 80.7 ± 3.7 μm
"CCOP(=O)(OCC)N1C/C(=C\c2ccc(Cl)cc2)C(=O)C2(C1)C(c1ccc(Cl)cc1)CN(C)C21C(=O)Nc2ccc(F)cc21 (stereo not drawn) [Compound 17i, Diethyl (E)-(5′′-(4-chlorobenzylidene)-4′-(4-chlorophenyl)-5-fluoro-1′-methyl-2,4′′-dioxodispiro[indoline-3,2′-pyrrolidine-3′,3′′-piperidin]-1′′-yl)phosphonate]",4.14 ± 0.042,4.14,> 12.1,0.07435,13.5 ± 0.898,> 3.7,4.81 ± 0.148,> 10.4,> 50,> 50,74.4,81.40 ± 1.9,86.9,42.76 ± 0.7,80.9,49.50 ± 0.3,46.2 ± 2.4,49.7 ± 1.9,28.56 ± 0.9,22.8 ± 1.6,"selectivity index (SI) ([5]; IC50 against RPE1 compared to the tested cancer cell line(s), in words): high selectivity index; SI (selectivity index, COX-2/COX-1) (COX-2): 1.09; TNF-α inhibition fold of the standard ibuprofen (TNF-α [10]; 10 μM): 1.9 fold; TNF-α inhibition fold of the standard indomethacin (TNF-α [10]; 10 μM): 2.4 fold; TNF-α % inhibition PaCa2 (TNF-α [10]): 79.6%; TNF-α % inhibition MCF7 (TNF-α [11]): 62.4%; TNF-α pg/mL (± SEM) MCF7 (TNF-α [11]): 31.27 ± 1.3 pg/mL; % Inhibition of the blood vessels in CAM test (CAM blood vessel network): 52.3%; Diameter of blood vessel (μm ± SEM) (CAM blood vessel network): 219.3 ± 5.6 μm"
